Test results: patent US12637425B2, “Compounds and formulations for treating ophthalmic diseases” (Visus Therapeutics, Inc., priority 2020, dated 2026)

How the values were obtained:
[1] = molecular target: T1, Alpha-Crystallin Domain of alpha B crystallin containing the E117C mutation (Homo sapiens, UniProt P02511, E117C); experiment: CryAB binding assay (MicroScale Thermophoresis, direct binding); conditions: 100 nM Cy5-labeled protein, Tris buffer pH 8
T1 construct: the Alpha-Crystallin Domain of alpha B crystallin containing the E117C mutation
T1 sequence (P02511 56-164 E117C limits assumed): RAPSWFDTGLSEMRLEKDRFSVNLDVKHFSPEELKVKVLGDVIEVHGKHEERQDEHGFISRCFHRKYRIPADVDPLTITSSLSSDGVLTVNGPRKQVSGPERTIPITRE
Description: Example A-2: CryAB Binding Assay
Affinities were determined by MicroScale Thermophoresis using a direct binding assay. Briefly, the Alpha-Crystallin Domain of alpha B crystallin containing the E117C mutation was alkylated with a Cy5 dye and monitored for binding at 100 nM protein in Tris buffer pH 8, containing 0.1% PEG-8000, 0.05% Tween-20, and 5% DMSO. Binding assays were performed by titrating ligand against a mixture of the dye-labeled protein and monitoring fluorescence changes indicating binding. Based on observed fluorescence measurements for each compound titration a KD was calculated using the Law of Mass Action equation.

[2] = molecular target: T2, Recombinant cryAB(R120G) protein (Homo sapiens, UniProt P02511, R120G); experiment: Kinetic turbidity aggregation assay of recombinant cryAB(R120G); type: biochemical; conditions: for inhibition at 25 µM / % Inhibition of Protein Aggregation, 25 μM cmpd: 25 μM compound; for inhibition at 25 µM: read-out: % Inhibition of Protein Aggregation, 25 μM cmpd; for inhibition at 100 µM: read-out: % Inhibition of Protein Aggregation, 100 μM cmpd; for inhibition at 400 µM: read-out: % Inhibition of Protein Aggregation, 400 μM cmpd; for IC50: inhibition of cryAB(R120G) protein aggregation
T2 sequence (P02511 1-175 R120G): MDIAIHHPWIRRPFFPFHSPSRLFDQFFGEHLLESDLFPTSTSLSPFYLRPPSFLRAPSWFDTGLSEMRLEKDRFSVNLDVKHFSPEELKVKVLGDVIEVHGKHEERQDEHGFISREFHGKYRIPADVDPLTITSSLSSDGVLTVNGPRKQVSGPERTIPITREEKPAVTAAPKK
In short: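 Recombinant human cryAB R120G at 15 μM final in 50 mM Tris, 100 mM NaCl, 5 mM DTT, 0.01% Triton X-100, 0.05% PEG-8000 with 4% DMSO. Compounds added from 2-fold serial DMSO dilutions, run in quadruplicate; aggregation followed kinetically by turbidity.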

[3] = 15 μM cryAB(R120G), 42° C., absorbance at 550 nm
[4] = 100 μM compound, 15 μM cryAB(R120G), 42° C., absorbance at 550 nm
[5] = 400 μM compound, 15 μM cryAB(R120G), 42° C., absorbance at 550 nm

Structure (SMILES)	Kd [1]	inhibition at 25 µM [2, 3]	inhibition at 100 µM [2, 4]	inhibition at 400 µM [2, 5]	IC50 [2]	% Inhibition of Protein Aggregation, 25 μM cmpd [2, 3]	% Inhibition of Protein Aggregation, 100 μM cmpd [2, 4]	% Inhibition of Protein Aggregation, 400 μM cmpd [2, 5]
Cn1cc([C@H](CNS(=O)(=O)c2ccc3cc[nH]c3c2)N2CCCC2)c2ccccc21 [Compound 25, (R)-N-(2-(1-methyl-1H-indol-3-yl)-2-(pyrrolidin-1-yl)ethyl)-1H-indole-6-sulfonamide]	10 to 50 µM	39%	97.1%	97.2%	10 to 50 µM	–	–	–
Cn1cc(C(CN(CC#N)S(=O)(=O)c2ccc3cc[nH]c3c2)N2CCCC2)c2ccccc21 (stereo not shown) [Compound 93, N-(cyanomethyl)-N-(2-(1-methyl-1H-indol-3-yl)-2-(pyrrolidin-1-yl)ethyl)-1H-indole-6-sulfonamide]	≤ 10 µM	99.7%	94.3%	–	≤ 10 µM	–	–	–
CCn1nc([C@@H](CNS(=O)(=O)c2ccc3cc[nH]c3c2)N2CCCC2)c2ccccc21 [Compound 91, (R)-N-(2-(1-ethyl-1H-indazol-3-yl)-2-(pyrrolidin-1-yl)ethyl)-1H-indole-6-sulfonamide]	≤ 10 µM	99%	99.6%	–	≤ 10 µM	–	–	–
Cn1nc([C@H](CNS(=O)(=O)c2ccc3cc[nH]c3c2)N2CCC2)c2ccccc21 [Compound 99, (S)-N-(2-(azetidin-1-yl)-2-(1-methyl-1H-indazol-3-yl)ethyl)-1H-indole-6-sulfonamide]	–	-56%	21.3%	–	–	–	–	–
Cn1cc(C(CNS(=O)(=O)c2ccc3[nH]ccc3c2)N2CCCC2)c2ccccc21 (stereo not shown) [Compound 26, N-(2-(1-methyl-1H-indol-3-yl)-2-(pyrrolidin-1-yl)ethyl)-1H-indole-5-sulfonamide]	–	-4%	90.6%	–	–	–	–	–
O=S(=O)(NC[C@H](c1cnc2ccccn12)N1CCCC1)c1ccc2cc[nH]c2c1 [Compound 78, (R)-N-(2-(imidazo[1,2-a]pyridin-3-yl)-2-(pyrrolidin-1-yl)ethyl)-1H-indole-6-sulfonamide]	–	23%	99.6%	–	–	–	–	–
CN1CCN(S(=O)(=O)c2ccc3cc[nH]c3c2)CC1c1cn(C)c2ccccc12 (stereo not shown) [Compound 4, 3-(4-((1H-indol-6-yl)sulfonyl)-1-methylpiperazin-2-yl)-1-methyl-1H-indole]	–	66.7%	62.8%	91.8%	–	–	–	–
COc1ccc2c(c1)c(C(CNS(=O)(=O)c1ccc3cc[nH]c3c1)N(C)C)cn2C (stereo not shown) [Compound 18, N-(2-(dimethylamino)-2-(5-methoxy-1-methyl-1H-indol-3-yl)ethyl)-1H-indole-6-sulfonamide]	–	68%	52.3%	98.5%	10 to 50 µM	–	–	–
Cn1cc(C(CNS(=O)(=O)c2cccc3[nH]ccc23)N2CCCC2)c2ccccc21 (stereo not shown) [Compound 27, N-(2-(1-methyl-1H-indol-3-yl)-2-(pyrrolidin-1-yl)ethyl)-1H-indole-4-sulfonamide]	–	–	85%	–	–	−35%	–	–
CCn1nc(C(CNS(=O)(=O)c2ccc3cc[nH]c3c2)N(C)C)c2ccccc21 (stereo not shown) [Compound 72, N-(2-(dimethylamino)-2-(1-ethyl-1H-indazol-3-yl)ethyl)-1H-indole-6-sulfonamide]	–	62%	98.2%	–	10 to 50 µM	–	–	–
Cn1cc([C@@H](CNS(=O)(=O)c2ccc3cc[nH]c3c2)N2CCCC2)c2ccccc21 [Compound 24, (S)-N-(2-(1-methyl-1H-indol-3-yl)-2-(pyrrolidin-1-yl)ethyl)-1H-indole-6-sulfonamide]	≤ 10 µM	99.7%	99.9%	–	≤ 10 µM	–	–	–
CC(C)n1cc(C(CNS(=O)(=O)c2ccc3cc[nH]c3c2)N(C)C)c2ccccc21 (stereo not shown) [Compound 1, N-(2-(dimethylamino)-2-(1-isopropyl-1H-indol-3-yl)ethyl)-1H-indole-6-sulfonamide]	–	–	–	–	≤ 10 µM	84%	99.5%	96.6%
CN(C)C(CNS(=O)(=O)c1ccc2ncsc2c1)c1cn(C)c2ccccc12 (stereo not shown) [Compound 11, N-(2-(dimethylamino)-2-(1-methyl-1H-indol-3-yl)ethyl)benzo[d]thiazole-6-sulfonamide]	–	-6%	-20%	20.5%	–	–	–	–
CN(C)C(CNS(=O)(=O)c1ccc2cc[nH]c2c1)c1cn(C)c2ccc(Cl)cc12 (stereo not shown) [Compound 42, N-(2-(5-chloro-1-methyl-1H-indol-3-yl)-2-(dimethylamino)ethyl)-1H-indole-6-sulfonamide]	–	91%	96.2%	–	≤ 10 µM	–	–	–
Cn1ccc2ccc(S(=O)(=O)NCC(c3cn(C)c4ccccc34)N3CCCC3)cc21 (stereo not shown) [Compound 33, 1-methyl-N-(2-(1-methyl-1H-indol-3-yl)-2-(pyrrolidin-1-yl)ethyl)-1H-indole-6-sulfonamide]	–	27%	82.8%	–	–	–	–	–
Cc1cc2cc[nH]c2cc1S(=O)(=O)NCC(c1cn(C)c2ccccc12)N(C)C (stereo not shown) [Compound 63, N-(2-(dimethylamino)-2-(1-methyl-1H-indol-3-yl)ethyl)-5-methyl-1H-indole-6-sulfonamide]	–	25%	99.2%	–	–	–	–	–
COC1CCN(C(CNS(=O)(=O)c2ccc3cc[nH]c3c2)c2cn(C)c3ccccc23)CC1 (stereo not shown) [Compound 47, N-(2-(4-methoxypiperidin-1-yl)-2-(1-methyl-1H-indol-3-yl)ethyl)-1H-indole-6-sulfonamide]	–	32%	86.9%	–	–	–	–	–
CCn1nc([C@H](CNS(=O)(=O)c2ccc3cc[nH]c3c2)N2CCC2)c2ccccc21 [Compound 95, (S)-N-(2-(azetidin-1-yl)-2-(1-ethyl-1H-indazol-3-yl)ethyl)-1H-indole-6-sulfonamide]	–	14%	56.2%	–	–	–	–	–
CC(C)n1cc(C(CNS(=O)(=O)c2ccc3[nH]ccc3c2)N(C)C)c2ccccc21 (stereo not shown) [Compound 12, N-(2-(dimethylamino)-2-(1-isopropyl-1H-indol-3-yl)ethyl)-1H-indole-5-sulfonamide]	–	30%	87.1%	96.1%	–	–	–	–
Cn1cc([C@@H](CNS(=O)(=O)c2ccc3cc[nH]c3c2)NCc2cncs2)c2ccccc21 [Compound 84, (S)-N-(2-(1-methyl-1H-indol-3-yl)-2-((thiazol-5-ylmethyl)amino)ethyl)-1H-indole-6-sulfonamide]	–	25%	71.8%	–	–	–	–	–
Cn1cc(C(CNS(=O)(=O)c2ccc3cc[nH]c3c2)N2CCCCC2)c2ccccc21 (stereo not shown) [Compound 29, N-(2-(1-methyl-1H-indol-3-yl)-2-(piperidin-1-yl)ethyl)-1H-indole-6-sulfonamide]	–	69%	99.9%	–	10 to 50 µM	–	–	–
Cn1cc(C(CNS(=O)(=O)c2ccc3cc[nH]c3c2)N2CC[C@@H](O)C2)c2ccccc21 (stereo partly drawn) [Compound 44, N-(2-((R)-3-hydroxypyrrolidin-1-yl)-2-(1-methyl-1H-indol-3-yl)ethyl)-1H-indole-6-sulfonamide]	–	82%	99.7%	–	≤ 10 µM	–	–	–
C[C@H]1CCCN1[C@@H](CNS(=O)(=O)c1ccc2cc[nH]c2c1)c1cn(C)c2ccccc12 [Compound 65, N-((R)-2-(1-methyl-1H-indol-3-yl)-2-((S)-2-methylpyrrolidin-1-yl)ethyl)-1H-indole-6-sulfonamide]	–	93%	99.7%	–	–	–	–	–
CN(C)C(CNS(=O)(=O)c1ccc2cc[nH]c2c1)c1cn(CC#N)c2ccccc12 (stereo not shown) [Compound 71, N-(2-(1-(cyanomethyl)-1H-indol-3-yl)-2-(dimethylamino)ethyl)-1H-indole-6-sulfonamide]	–	63%	99.3%	–	–	–	–	–
CC(C)n1cc(C(CNS(=O)(=O)c2cccc3cc[nH]c23)N(C)C)c2ccccc21 (stereo not shown) [Compound 14, N-(2-(dimethylamino)-2-(1-isopropyl-1H-indol-3-yl)ethyl)-1H-indole-7-sulfonamide]	–	11%	74.9%	81%	–	–	–	–
CN(C)C(CNS(=O)(=O)c1ccc2cc[nH]c2c1)c1cn(CC2COC2)c2ccccc12 (stereo not shown) [Compound 70, N-(2-(dimethylamino)-2-(1-(oxetan-3-ylmethyl)-1H-indol-3-yl)ethyl)-1H-indole-6-sulfonamide]	–	76%	99.6%	–	–	–	–	–
